According to ChEMBL document CHEMBL5321219, “Selective degradation of cellular BRD3 and BRD4-L promoted by PROTAC molecules in six cancer cell lines” (Eur J Med Chem, 2023):
Calls of active or inactive are those of the source. The rule behind the calls is not given here.

Experiments:
MM1.S [1] = test: Induction of cell cycle arrest in human MM1.S cells assessed as accumulation of cells at G2 phase at 3 nM incubated for 24 hrs by flow cytometry analysis (reference value: 14.68%); assay type: functional
[2] = target: Protein cereblon/Bromodomain-containing protein 2 (Homo sapiens) (UniProt P25440+Q96SW2); test: PROTAC activity at CRBN/BRD2 in human HGC-27 cells assessed as induction of protein degradation at 0.1 to 30 nM measured after 24 hrs by Western blot analysis; assay type: cell-based; conditions: dose 0.1-30 nM
[3] = target: T1, Protein cereblon/Bromodomain-containing protein 4 (Homo sapiens) (UniProt O60885+Q96SW2); test: PROTAC activity at CRBN/BRD4-L in human HeLa cells assessed as induction of protein degradation measured after 24 hrs by Western blot analysis; assay type: cell-based; conditions: dose 1-300 nM
[4] = target: T1, Protein cereblon/Bromodomain-containing protein 4 (Homo sapiens); test: PROTAC activity at CRBN/BRD4-S in human A549 cells assessed as induction of protein degradation at 3 to 1000 nM measured after 24 hrs by Western blot analysis; assay type: cell-based; conditions: dose 3-1000 nM
MM1.S [5] = test: Induction of cell cycle arrest in human MM1.S cells assessed as accumulation of cells at G1 phase at 10 nM incubated for 24 hrs by flow cytometry analysis (reference value: 56.32%); assay type: functional
[6] = target: T1, Protein cereblon/Bromodomain-containing protein 4 (Homo sapiens); test: PROTAC activity at CRBN/BRD4-S in human MV4-11 cells assessed as induction of protein degradation at 0.1 to 30 nM measured after 24 hrs by Western blot analysis; assay type: cell-based; conditions: dose 0.1-30 nM
[7] = target: T2, Protein cereblon/Bromodomain-containing protein 3 (Homo sapiens) (UniProt Q15059+Q96SW2); test: PROTAC activity at CRBN/BRD3 in human MV4-11 cells assessed as induction of protein degradation at 0.1 to 10 nM measured after 24 hrs by Western blot analysis; assay type: cell-based; conditions: dose 0.1-10 nM
[8] = target: T1, Protein cereblon/Bromodomain-containing protein 4 (Homo sapiens); test: PROTAC activity at CRBN/BRD4-S in human HGC-27 cells assessed as induction of protein degradation at 0.1 to 30 nM measured after 24 hrs by Western blot analysis; assay type: cell-based; conditions: dose 0.1-30 nM
MM1.S [9] = test: Induction of cell cycle arrest in human MM1.S cells assessed as accumulation of cells at S phase at 10 nM incubated for 24 hrs by flow cytometry analysis (reference value: 22.37%); assay type: functional
[10] = target: T1, Protein cereblon/Bromodomain-containing protein 4 (Homo sapiens); test: PROTAC activity at CRBN/BRD4-S in human HeLa cells assessed as induction of protein degradation at 1 to 300 nM measured after 24 hrs by Western blot analysis; assay type: cell-based; conditions: dose 1-300 nM
MM1.S [11] = test: Induction of cell cycle arrest in human MM1.S cells assessed as accumulation of cells at S phase at 30 nM incubated for 24 hrs by flow cytometry analysis (reference value: 22.37%); assay type: functional
MM1.S [12] = test: Downregulation of c-Myc protein expression in human MM1.S cells at 0.1 to 30 nM measured after 24 hrs by Western blot analysis; assay type: functional, cell-based; conditions: dose 0.1-30 nM
MV4-11 = test: Antiproliferative activity against human MV4-11 cells assessed as cell growth inhibition measured after 3 days by CellTitre-Glo assay; assay type: functional, cell-based; conditions: MV4-11, 72 h
[13] = target: T2, Protein cereblon/Bromodomain-containing protein 3 (Homo sapiens); test: PROTAC activity at CRBN/BRD3 in human MM1.S cells assessed as induction of protein degradation at 30 nM measured after 3 to 6 hrs by Western blot analysis; assay type: cell-based; conditions: time 3-6 hrs
[14] = target: T2, Protein cereblon/Bromodomain-containing protein 3 (Homo sapiens); test: PROTAC activity at CRBN/BRD3 in human MM1.S cells assessed as induction of protein degradation at 30 nM pretreated with 0.2 to 10 uM MG132 for 2 hrs followed by compound addition and measured after 4 hrs by Western blot analysis; assay type: cell-based
[15] = target: Bromodomain-containing protein 3 (Homo sapiens, UniProt Q15059); test: Binding affinity to recombinant human BRD3 BD1 (24 to 144 residues) assessed as inhibition constant by fluorescence polarization binding assay
[16] = target: T2, Protein cereblon/Bromodomain-containing protein 3 (Homo sapiens); test: PROTAC activity at CRBN/BRD3 in human MM1.S cells assessed as induction of protein degradation measured after 24 hrs by Western blot analysis; assay type: cell-based
[17] = target: T1, Protein cereblon/Bromodomain-containing protein 4 (Homo sapiens); test: PROTAC activity at CRBN/BRD4-L in human HepG2 cells assessed as induction of protein degradation measured after 24 hrs by Western blot analysis; assay type: cell-based; conditions: dose 10-3000 nM
MM1.S [18] = test: Induction of cell cycle arrest in human MM1.S cells assessed as accumulation of cells at G2 phase at 1 nM incubated for 24 hrs by flow cytometry analysis (reference value: 14.68%); assay type: functional
MM1.S [19] = test: Downregulation of BRD2 expression in human MM1.S cells by proteomic analysis; assay type: functional, cell-based
MM1.S [20] = test: Induction of cell cycle arrest in human MM1.S cells assessed as accumulation of cells at G1 phase at 1 nM incubated for 24 hrs by flow cytometry analysis (reference value: 56.32%); assay type: functional
MM1.S [21] = test: Induction of cell cycle arrest in human MM1.S cells assessed as accumulation of cells at S phase at 100 nM incubated for 24 hrs by flow cytometry analysis (reference value: 22.37%); assay type: functional
MM1.S [22] = test: Induction of cell cycle arrest in human MM1.S cells assessed as accumulation of cells at G1 phase at 300 nM incubated for 24 hrs by flow cytometry analysis (reference value: 56.32%); assay type: functional
[23] = target: T1, Protein cereblon/Bromodomain-containing protein 4 (Homo sapiens); test: PROTAC activity at CRBN/BRD4-L in human MM1.S cells assessed as induction of protein degradation at 30 nM pretreated with 0.2 to 10 uM MG132 for 2 hrs followed by compound addition and measured after 4 hrs by Western blot analysis; assay type: cell-based
MM1.S [24] = test: Induction of cell cycle arrest in human MM1.S cells assessed as accumulation of cells at S phase at 3 nM incubated for 24 hrs by flow cytometry analysis (reference value: 22.37%); assay type: functional
MM1.S [25] = test: Induction of cell cycle arrest in human MM1.S cells assessed as accumulation of cells at S phase at 300 nM incubated for 24 hrs by flow cytometry analysis (reference value: 22.37%); assay type: functional
[26] = target: T2, Protein cereblon/Bromodomain-containing protein 3 (Homo sapiens); test: PROTAC activity at CRBN/BRD3 in human A549 cells assessed as induction of protein degradation measured after 24 hrs by Western blot analysis; assay type: cell-based; conditions: dose 3-1000 nM
A549 = test: Antiproliferative activity against human A549 cells assessed as cell growth inhibition measured after 4 days by CCK-8 assay; assay type: functional, cell-based; conditions: A549, 96 h
[27] = target: T2, Protein cereblon/Bromodomain-containing protein 3 (Homo sapiens); test: PROTAC activity at CRBN/BRD3 in human MCF7 cells assessed as induction of protein degradation measured after 24 hrs by Western blot analysis; assay type: cell-based; conditions: dose 1-300 nM
[28] = target: T1, Protein cereblon/Bromodomain-containing protein 4 (Homo sapiens); test: PROTAC activity at CRBN/BRD4-L in human MM1.S cells assessed as induction of protein degradation at 30 nM measured after 3 to 6 hrs by Western blot analysis; assay type: cell-based; conditions: time 3-6 hrs
[29] = target: T2, Protein cereblon/Bromodomain-containing protein 3 (Homo sapiens); test: PROTAC activity at CRBN/BRD3 in human MCF7 cells assessed as induction of protein degradation at 30 nM by Western blot analysis; assay type: cell-based; conditions: time 1-3 hrs, TDE = time-dependent effect
[30] = target: T1, Protein cereblon/Bromodomain-containing protein 4 (Homo sapiens); test: PROTAC activity at CRBN/BRD4-L in human MCF7 cells assessed as induction of protein degradation measured after 24 hrs by Western blot analysis; assay type: cell-based; conditions: dose 1-300 nM
MM1.S [31] = test: Induction of cell cycle arrest in human MM1.S cells assessed as accumulation of cells at G1 phase at 30 nM incubated for 24 hrs by flow cytometry analysis (reference value: 56.32%); assay type: functional

T1 sequence (Q96SW2 whole entry, looked up, other chains not shown): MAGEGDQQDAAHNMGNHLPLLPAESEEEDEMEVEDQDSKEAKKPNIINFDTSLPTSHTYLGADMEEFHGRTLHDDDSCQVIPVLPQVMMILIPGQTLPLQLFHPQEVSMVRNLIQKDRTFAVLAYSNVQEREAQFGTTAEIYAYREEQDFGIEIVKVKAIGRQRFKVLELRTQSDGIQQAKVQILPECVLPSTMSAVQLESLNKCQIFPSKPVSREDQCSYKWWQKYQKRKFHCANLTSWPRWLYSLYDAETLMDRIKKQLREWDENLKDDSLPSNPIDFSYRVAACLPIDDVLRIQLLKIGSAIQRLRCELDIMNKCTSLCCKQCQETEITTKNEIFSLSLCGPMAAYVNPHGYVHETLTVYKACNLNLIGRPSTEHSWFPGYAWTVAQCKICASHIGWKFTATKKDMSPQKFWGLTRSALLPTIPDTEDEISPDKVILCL
T2 sequence (Q15059 2-726 limits assumed): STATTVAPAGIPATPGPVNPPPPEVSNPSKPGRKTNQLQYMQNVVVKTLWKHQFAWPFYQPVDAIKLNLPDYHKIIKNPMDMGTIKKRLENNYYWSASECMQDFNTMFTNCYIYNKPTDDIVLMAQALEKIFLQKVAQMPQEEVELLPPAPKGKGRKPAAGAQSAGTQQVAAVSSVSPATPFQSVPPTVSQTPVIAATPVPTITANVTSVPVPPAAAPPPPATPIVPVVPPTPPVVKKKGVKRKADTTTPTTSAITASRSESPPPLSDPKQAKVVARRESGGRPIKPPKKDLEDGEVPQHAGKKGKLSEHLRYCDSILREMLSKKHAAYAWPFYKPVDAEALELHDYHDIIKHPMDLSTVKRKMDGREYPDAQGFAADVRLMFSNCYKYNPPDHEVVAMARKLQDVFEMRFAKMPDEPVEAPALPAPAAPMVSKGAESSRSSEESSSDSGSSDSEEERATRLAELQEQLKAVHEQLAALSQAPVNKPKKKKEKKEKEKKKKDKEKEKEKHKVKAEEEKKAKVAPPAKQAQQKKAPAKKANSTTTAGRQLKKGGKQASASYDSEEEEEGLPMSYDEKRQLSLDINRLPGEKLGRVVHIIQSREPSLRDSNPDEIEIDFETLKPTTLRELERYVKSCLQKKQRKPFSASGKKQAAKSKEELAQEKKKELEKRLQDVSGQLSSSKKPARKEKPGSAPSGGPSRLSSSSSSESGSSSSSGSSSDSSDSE
T2 sequence (Q96SW2 whole entry partner): as the sequence (Q96SW2 whole entry, looked up, other chains not shown) above
Sequence of Protein cereblon/Bromodomain-containing protein 2 (Homo sapiens) (P25440 whole entry, looked up): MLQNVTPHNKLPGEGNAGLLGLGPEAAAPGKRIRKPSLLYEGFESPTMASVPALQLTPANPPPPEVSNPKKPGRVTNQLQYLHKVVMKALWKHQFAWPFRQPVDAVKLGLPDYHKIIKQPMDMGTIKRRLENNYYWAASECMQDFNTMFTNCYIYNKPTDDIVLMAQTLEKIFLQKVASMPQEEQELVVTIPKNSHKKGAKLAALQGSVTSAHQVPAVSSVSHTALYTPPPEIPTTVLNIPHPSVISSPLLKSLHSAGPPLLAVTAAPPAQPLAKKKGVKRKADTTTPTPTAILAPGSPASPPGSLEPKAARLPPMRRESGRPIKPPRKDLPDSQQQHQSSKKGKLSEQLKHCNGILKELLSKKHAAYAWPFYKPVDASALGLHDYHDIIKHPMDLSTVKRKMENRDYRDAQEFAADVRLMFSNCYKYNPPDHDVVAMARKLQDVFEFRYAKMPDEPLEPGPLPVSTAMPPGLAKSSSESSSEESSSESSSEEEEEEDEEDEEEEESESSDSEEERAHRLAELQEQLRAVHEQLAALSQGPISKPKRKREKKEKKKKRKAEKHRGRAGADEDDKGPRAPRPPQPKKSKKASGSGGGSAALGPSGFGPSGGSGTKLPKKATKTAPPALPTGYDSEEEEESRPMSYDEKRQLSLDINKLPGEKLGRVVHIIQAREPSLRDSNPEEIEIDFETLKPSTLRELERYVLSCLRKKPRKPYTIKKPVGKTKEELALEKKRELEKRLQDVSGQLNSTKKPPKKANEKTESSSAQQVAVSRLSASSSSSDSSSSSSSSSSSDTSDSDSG
Sequence of Protein cereblon/Bromodomain-containing protein 2 (Homo sapiens) (Q96SW2 whole entry, looked up): as the sequence (Q96SW2 whole entry, looked up, other chains not shown) above
Sequence of Bromodomain-containing protein 3 (Q15059 whole entry, the tested form may be a part): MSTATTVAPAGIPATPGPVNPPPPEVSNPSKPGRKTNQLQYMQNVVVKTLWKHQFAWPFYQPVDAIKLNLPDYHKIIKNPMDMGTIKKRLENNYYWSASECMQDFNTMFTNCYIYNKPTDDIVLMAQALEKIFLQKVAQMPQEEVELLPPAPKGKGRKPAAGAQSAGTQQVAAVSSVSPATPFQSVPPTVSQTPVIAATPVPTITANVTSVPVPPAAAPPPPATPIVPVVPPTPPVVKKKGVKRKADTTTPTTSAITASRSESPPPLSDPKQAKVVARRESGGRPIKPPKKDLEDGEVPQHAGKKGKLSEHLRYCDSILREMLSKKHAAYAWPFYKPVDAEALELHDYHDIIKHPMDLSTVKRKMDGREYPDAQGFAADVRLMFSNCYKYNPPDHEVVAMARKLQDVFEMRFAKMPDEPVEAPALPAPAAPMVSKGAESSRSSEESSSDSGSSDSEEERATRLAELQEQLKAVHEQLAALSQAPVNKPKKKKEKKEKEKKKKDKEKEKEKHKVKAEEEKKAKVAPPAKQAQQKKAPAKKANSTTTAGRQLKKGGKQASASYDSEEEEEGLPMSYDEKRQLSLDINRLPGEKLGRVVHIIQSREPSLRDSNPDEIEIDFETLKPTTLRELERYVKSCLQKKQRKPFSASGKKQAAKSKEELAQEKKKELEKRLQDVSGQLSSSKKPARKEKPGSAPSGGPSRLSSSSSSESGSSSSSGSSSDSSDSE

Cc1nnc2n1-c1ccc(-c3ccc(CNCCCCc4cccc5c4CN(C4CCC(=O)NC4=O)C5=O)cc3)cc1C(Nc1ccc(Cl)cc1)CC2 (stereo not drawn)
Activity (MM1.S [1]): 20.58%
Activity [2]: inactive
Activity [3]: Dose-Dependent Effect
Activity [4]: inactive
Activity (MM1.S [5]): 63.9%
Activity [6]: Active
Activity [7]: inactive
Activity [8]: inactive
Activity (MM1.S [9]): 14.97%
Activity [10]: inactive
Activity (MM1.S [11]): 15.21%
Activity (MM1.S [12]): Active
IC50 (MV4-11): 6.31 nM
Activity [13]: Active
Activity [14]: inactive
Ki [15]: 12 nM
Activity [16]: Dose-Dependent Effect
Activity [17]: Dose-Dependent Effect
Activity (MM1.S [18]): 15.24%
Activity (MM1.S [19]): inactive
Activity (MM1.S [20]): 58.49%
Activity (MM1.S [21]): 13.23%
Activity (MM1.S [22]): 68.85%
Activity [23]: inactive
Activity (MM1.S [24]): 17.72%
Activity (MM1.S [25]): 13.79%
Activity [26]: Dose-Dependent Effect
IC50 (A549): 14300 nM
Activity [27]: Dose-Dependent Effect
Activity [28]: Active
Activity [29]: Tde
Activity [30]: Dose-Dependent Effect
Activity (MM1.S [31]): 65.17%
